≈ marks a conversion by molar mass, not a printed value.
Assays:
[1] = system: human promonocytic HL-CZ cells; assay: Cell viability assay (trypan blue), HL-CZ cells; settings: 48 hours, trypan blue staining
[2] = Cell viability assay (trypan blue), BHK-21 cells; settings: hamster, CC50 BHK-21, BHK-21 cells, trypan blue staining
BHK-21 cells = assay: Cell viability assay (trypan blue), BHK-21 cells; settings: BHK-21 cells, 48 hours, trypan blue staining
[3] = Cell viability assay (trypan blue), HL-CZ cells; settings: human, CC50 HL-CZ, trypan blue staining
JEV [4] = assay: Plaque reduction and time-of-addition assay in BHK-21 cells; settings: Japanese encephalitis virus
JEV [5] = assay: Virus attachment assay (4°C, BHK-21 monolayer); type: cell-based; settings: Japanese encephalitis virus; JEV 120 pfu, 4°C 1 h on BHK-21 monolayer, residual infectivity by plaque assay
Protocol: After 3-day incubation at 37°C in a 5% CO2 incubator, plaques were stained, as described in plaque assay.

JEV [6] = assay: Virucidal activity assay; type: cell-based; settings: Japanese encephalitis virus; JEV 10^5 pfu preincubated 60 min at 4°C, 1000-fold dilution, residual infectivity on BHK-21
Protocol: Virucidal assay was based on prior reports. […] A 1000-fold dilution of each extract/virus or compound/virus mixture was added onto BHK-21 cell monolayer in 6-well plates.

JEV [7] = assay: Virus yield in JEV-infected HL-CZ cells by plaque assay; settings: 10 μg/mL, JEV MOI 0.5, after 24 h incubation
[8] = system: virulent JEV strain Beijing-1; assay: Mouse protection assay against lethal JEV challenge; type: in vivo; settings: BALB/c mice, i.c. JEV 1 × 10^5 pfu, 1 mg/kg i.c. at 2, 24, 48 h after infection
Protocol: Groups (n = 10) of 2-week-old BALB/c mice were intracerebrally infected with 1 × 10^5 pfu of virulent JEV strain Beijing-1 then underwent three intracerebral treatments with 30 μg/100 μL of I. indigotica extract or marker compound (1 mg/kg of body weight) using 100 μL syringes at 2, 24, and 48 h after infection. Two additional groups were infected with JEV and received PBS or DMSO (0.05%) treatment as solvent controls. Survival rates were monitored every day for one week.

[9] = BHK-21, 1 h, read-out: IC50 of posttreatment
[10] = BHK-21, 1 h, read-out: IC50 of simultaneous treatment
[11] = BHK-21, read-out: IC50 of pretreatment

Row | Structure (SMILES) | CC50 HL-CZ [1] | CC50 at 48 h [2] | CC50 BHK-21 (BHK-21 cells) | CC50 at 48 h [3] | IC50 (JEV [4]; [9]) | IC50 (JEV [4]; [10]) | IC50 (JEV [4]; [11]) | IC50 (JEV [5]) | CC50 BHK-21 (BHK-21 cells; listed as indigo) | IC50 (JEV [6]) | virus yield reduced (JEV [7]) | Survival rate on Day 6 after infection [8]
1 | O=c1[nH]c2ccccc2o1 [2-Benzoxazolinone, 2-benzoxazolinone] | 67.33 ± 10.2 µg/mL (≈ 498 µM) | < 25 µg/mL | 19.92 ± 1.57 µg/mL (≈ 147 µM) |  |  |  |  |  |  |  |  | 
2 | Nc1ncnc2c1ncn2[C@@H]1O[C@H](CO)[C@@H](O)[C@H]1O [Adenosine, adenosine] | 15.38 ± 1.05 µg/mL (≈ 57.6 µM) | < 25 µg/mL | 24.10 ± 2.57 µg/mL (≈ 90.2 µM) | < 25 µg/mL |  |  |  |  |  |  |  | 
3 | C=C(C)[C@@H]1CC[C@]2(CO)CC[C@]3(C)[C@H](CC[C@@H]4[C@@]5(C)CC[C@H](O)C(C)(C)[C@@H]5CC[C@]43C)[C@@H]12 [Betulin, betulin] | 2.10 ± 0.78 µg/mL (≈ 4.74 µM) | < 25 µg/mL | 13.30 ± 2.58 µg/mL (≈ 30 µM) |  |  |  |  |  |  |  |  | 
4 | O=C1/C(=C2\Nc3ccccc3C2=O)Nc2ccccc21 [Indigo, indigo] |  |  | 86.88 ± 3.72 µg/mL (≈ 331 µM) | 99.41 ± 0.54 µg/mL (≈ 379 µM) | > 50 µg/mL | 37.5 ± 3.18 µg/mL (≈ 143 µM) | 11.79 ± 0.1 µg/mL (≈ 45 µM) | 5.15 ± 0.18 µg/mL (≈ 19.6 µM) | 26.88 µg/mL (≈ 102 µM) | 3.03 ± 3.18 µg/mL (≈ 11.6 µM) | approximately 40% | 50%
5 | O=C1Nc2ccccc2/C1=C1/Nc2ccccc2C1=O [Indirubin, indirubin] |  | 57.5 µg/mL (≈ 219 µM) | >100 µg/mL | 64.9 ± 1.08 µg/mL (≈ 247 µM) | > 50 µg/mL | 13.7 ± 2.83 µg/mL (≈ 52.2 µM) | 23.5 ± 0.89 µg/mL (≈ 89.6 µM) | 5.1 ± 1.32 µg/mL (≈ 19.4 µM) |  | 0.47 ± 2.83 µg/mL (≈ 1.79 µM) | approximately 40% | 70%
6 | C=C(C)[C@@H]1CC[C@]2(C)CC[C@]3(C)[C@H](CC[C@@H]4[C@@]5(C)CC[C@H](O)C(C)(C)[C@@H]5CC[C@]43C)[C@@H]12 [Lupeol, lupeol] | 3.44 ± 1.17 µg/mL (≈ 8.06 µM) |  | 9.53 ± 1.32 µg/mL (≈ 22.3 µM) |  |  |  |  |  |  |  |  | 
7 | O=C1c2ccccc2-n2c1nc1ccccc1c2=O [Tryptathrin, tryptanthrin] | 1.74 ± 0.34 µg/mL (≈ 7.01 µM) |  | 4.57 ± 0.26 µg/mL (≈ 18.4 µM) |  |  |  |  |  |  |  |  | 

From paper PMC3405817 (Evidence-based Complementary and Alternative Medicine : eCAM, 2012)
